“And” between values parts separate entries of the source, which are not always exact repeats. Equal entries are not always repeated. Non-standard residues stand in square brackets, D forms with d. Residues, ends and D or L forms follow the SMILES beside them. *: point of attachment. Sta = CC(C)C[C@H](N)[C@@H](O)CC(=O)O; Isovaleryl = CC(C)CC(=O)*
Key:
[1] = tested on: peptidase activity in DMEM conditioned media; assay: Class-specific peptidase inhibitors on IQ substrate cleavage by DMEM conditioned media; format: biochemical, Cryptococcus neoformans; details: 1 mM 1-10-phenanthroline
Protocol: (§1) Although peptidase activity was evident under both culture conditions, differential substrate cleavage reflected differences in specificity. […] Adjustment of YNB supernatants from pH 5.0 to 7.4 (the pH of DMEM media) yielded only very low levels of any peptidase activity, while lowering the pH of DMEM supernatants from 7.4 to pH 5.0 produced a peptidase activity pattern similar to YNB media (S1 Fig).
(§2) Assays were conducted at room temperature on a Biotek Synergy H4 plate reader in a 50 μl volume using 96-well round bottom, polystyrene plates (Corning) with λex 328 nm λem 393 nm unless otherwise stated. Substrates were each 7 or 8 amino acids with 7-methoxycoumarin-4-acetic acid or 7-methoxycoumarin-4-yl-acetyl-L-lysine on the amino terminus, and at the carboxyl terminus 4-dinitrophenyl-L-lysine or 4-dinitrophenyl bound directly to the carboxyl terminus as indicated (For sequences see S1 Table). Substrates were assayed at a 10 μM final concentration from DMSO stocks. […]
(§3) Supplementary file ppat.1006051.s001.pdf: S1 Fig Fluorogenic assays indicate the endopeptidase class present in conditioned media and the optimal pH for detection of activity. […] The activity scale is differs for this experiment because this assay was conducted on a SpectraMax Gemini plate reader (Molecular Devices) although conditions were otherwise equivalent. […]

May1 = target: T1, May1 (Cryptococcus neoformans, UniProt J9VS02); assay: May1 inhibition, fluorogenic IQ-2 assay (screen and IC50); format: biochemical; details: for IC50: 14.6 nM May1, 10 μM IQ-2, 100 mM MES 100 mM NaCl pH 4.5, 10 min preincubation, read-out: IC50 against May1
T1 construct: endogenous in cells; host or cells: wild-type C. neoformans H99, 32-hour YNB culture supernatant, enriched on HiTrap DEAE
T1 sequence (J9VS02 99-455 limits assumed): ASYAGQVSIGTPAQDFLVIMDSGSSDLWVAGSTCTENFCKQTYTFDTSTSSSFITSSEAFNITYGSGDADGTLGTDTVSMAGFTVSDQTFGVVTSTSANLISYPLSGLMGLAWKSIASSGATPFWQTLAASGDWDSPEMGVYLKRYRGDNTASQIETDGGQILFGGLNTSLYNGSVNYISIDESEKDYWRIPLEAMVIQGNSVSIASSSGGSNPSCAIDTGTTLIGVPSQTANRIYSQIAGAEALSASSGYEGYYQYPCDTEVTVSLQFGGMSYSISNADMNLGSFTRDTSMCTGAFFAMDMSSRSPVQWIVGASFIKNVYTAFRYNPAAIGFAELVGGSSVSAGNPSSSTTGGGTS
Protocol: Assays were conducted at room temperature on a Biotek Synergy H4 plate reader in a 50 μl volume using 96-well round bottom, polystyrene plates (Corning) with λex 328 nm λem 393 nm unless otherwise stated. Substrates were each 7 or 8 amino acids with 7-methoxycoumarin-4-acetic acid or 7-methoxycoumarin-4-yl-acetyl-L-lysine on the amino terminus, and at the carboxyl terminus 4-dinitrophenyl-L-lysine or 4-dinitrophenyl bound directly to the carboxyl terminus as indicated (For sequences see S1 Table). Substrates were assayed at a 10 μM final concentration from DMSO stocks. Biotek Gen5 software was used to calculate initial velocities in relative fluorescent units per second (RFU/sec) from 20 points over the linear portion of each assay. To assay activity, YNB conditioned media was adjusted to pH 4.5 using 100 mM MES, 100 mM NaCl buffer, […] at a final concentration of 26 mM MES, 26 mM NaCl, unless otherwise stated. Conditioned DMEM media was first buffer exchanged into PBS using a centrifugal filter unit with a 3 kDa cutoff (Millipore) before use. The peptidase inhibitors pepstatin A, 1-10-phenanthroline, AEBSF and E64 were dissolved in DMSO and were obtained from Sigma-Aldrich.
To concentrate secreted May1, YNB conditioned media was prepared as described above from 32-hour cultures of wild-type C. neoformans. The media was then diluted 2.7-fold into buffer A (50 mM Tris base pH 8), chosen to increase the pH in order to limit May1 autoproteolysis, dilute salts in the media (final conductivity ~6%), and confer a negative charge to the peptidase domain. The media was then loaded onto a 1 ml HiTrap DEAE fast flow column (GE Healthcare) using a fast protein liquid chromatography system with a flow rate of 1.5 ml/min. May1 was eluted using a 30 minute linear gradient of 0–100% buffer B (50 mM Tris base, 1 M NaCl, pH 8). Active fractions were determined by measuring activity using the substrate IQ-2. They were then combined and approximate May1 concentration determined by active-site titration.
Published methods were followed with minor modifications.
IC50 calculations were conducted using 14.6 nM May1 (100 mM MES 100 mM NaCl pH 4.5). Inhibitor stocks were dissolved in DMSO and incubated with May1 for 10 minutes before addition of substrate. GraphPad Prism 6 was used to calculate IC50 values from a plot of the log of inhibitor concentration versus normalized response.

may1Δ C. neoformans = assay: Culture density of may1Δ strain in YNB treated with May1 inhibitors; format: cell-based, Cryptococcus neoformans; details: YNB cultures
Protocol: Average values and S.D. of triplicate measurements are shown. (B) Density at saturation (after 48 hours of growth) is shown for YNB cultures of wild type or may1Δ C. neoformans treated with May1 inhibitors. Average values and S.D. of triplicates are shown.

[2] = tested on: peptidase activity in YNB conditioned media; assay: Class-specific peptidase inhibitors on IQ substrate cleavage by YNB conditioned media; format: biochemical, Cryptococcus neoformans; details: 1 µM pepstatin
Protocol: as §1, §2, §3

wild type C. neoformans = assay: Culture density at saturation (OD600) of wild type C. neoformans in YNB treated with May1 inhibitors; format: cell-based, Cryptococcus neoformans; details: 2 μM pepstatin A
Protocol: Fig 5 May1 activity is required for wild-type growth at acidic pH. (A) Culture density was recorded over time by measuring OD600 of cultures grown in YNB. The average density and S.D. of triplicates are shown. (B) Culture density of wild-type C. neoformans grown in YNB containing 2 μM pepstatin A was recorded. Mock indicates DMSO treatment. The average and S.D. of cultures grown in triplicate are shown. (C) Mutant characterization assays were conducted using YNB agar plates. Cultures were adjusted to an OD600 of 5 and then spotted in 10-fold serial dilutions on plates. (D) Full rescue of may1Δ saturation density in YNB was observed after buffering to pH 6.5. Average density and S.D. of triplicates are shown.
Next, we selected the two best in vitro hits to test their potency in culture relative to pepstatin A by measuring inhibition of May1 and restriction of culture growth using fluorogenic assays and OD600 respectively. […] None of the three compounds affected the culture density of a may1Δ strain, consistent with the idea that May1 is the compounds’ relevant target in this context (S11 Fig). […] However, additional medicinal chemistry efforts are necessary for in vivo applications. Therefore, subsequent studies investigating the role of May1 in virulence were carried out using deletion strains of this enzyme. […]

Row | Structure (SMILES) | sensitivity of IQ substrate cleavage by DMEM conditioned media to inhibitor [1] | IC50 (May1) | reduction of May1 activity (May1; 1 μM inhibitor, substrate IQ-2) [%] | effect on culture density of may1Δ cells (may1Δ C. neoformans) | inhibition of proteolysis of IQ-2 by enriched May1 (May1; May1 enriched from YNB conditioned media) | sensitivity of IQ substrate cleavage by conditioned YNB media to inhibitor [2] | saturation density of wild type cultures in YNB (wild type C. neoformans)
1 | c1cnc2c(c1)ccc1cccnc12 [1-10-phenanthroline] | sensitive | – | – | – | – | – | –
2 | Cc1nc(COc2ccc(C[C@H](NC(=O)O[C@H]3CO[C@H]4OCC[C@H]43)[C@H](O)CN(CC(C)C)S(=O)(=O)c3ccc4c(c3)OCO4)cc2)cs1 [Brecanavir] | – | 352 nM and ~352 nM | 80 | – | – | – | –
3 | CC(C)CC(=O)N[C@H](C(=O)N[C@H](C(=O)N[C@@H](CC(C)C)[C@@H](O)CC(=O)N[C@@H](C)C(=O)N[C@@H](CC(C)C)[C@@H](O)CC(=O)O)C(C)C)C(C)C [Pepstatin A, pepstatin A] (Isovaleryl-VV[Sta]A[Sta]-OH) | – | 1.4 nM | – | no effect | fully inhibited | sensitive | saturation density defect equivalent to that observed for the MAY1 deletion strains
